Data: patent US9951060B2, “2-acylaminothiazole derivative or salt thereof” (ASTELLAS PHARMA INC., priority 2014, dated 2018)

Experiments:
[1] = molecular target: T1, human c-Mpl-introduced Ba/F3 cell (Homo sapiens, UniProt P40238); experiment: Test Example 2: human c-Mpl-introduced Ba/F3 cell proliferative activity; format: cell-based; conditions: concentration exhibiting 30% proliferation; 100% = positive control (Example 315 of Patent Document 1) at 1 μM
T1 construct: expressed in transfected cells
T1 sequence (P40238 26-635): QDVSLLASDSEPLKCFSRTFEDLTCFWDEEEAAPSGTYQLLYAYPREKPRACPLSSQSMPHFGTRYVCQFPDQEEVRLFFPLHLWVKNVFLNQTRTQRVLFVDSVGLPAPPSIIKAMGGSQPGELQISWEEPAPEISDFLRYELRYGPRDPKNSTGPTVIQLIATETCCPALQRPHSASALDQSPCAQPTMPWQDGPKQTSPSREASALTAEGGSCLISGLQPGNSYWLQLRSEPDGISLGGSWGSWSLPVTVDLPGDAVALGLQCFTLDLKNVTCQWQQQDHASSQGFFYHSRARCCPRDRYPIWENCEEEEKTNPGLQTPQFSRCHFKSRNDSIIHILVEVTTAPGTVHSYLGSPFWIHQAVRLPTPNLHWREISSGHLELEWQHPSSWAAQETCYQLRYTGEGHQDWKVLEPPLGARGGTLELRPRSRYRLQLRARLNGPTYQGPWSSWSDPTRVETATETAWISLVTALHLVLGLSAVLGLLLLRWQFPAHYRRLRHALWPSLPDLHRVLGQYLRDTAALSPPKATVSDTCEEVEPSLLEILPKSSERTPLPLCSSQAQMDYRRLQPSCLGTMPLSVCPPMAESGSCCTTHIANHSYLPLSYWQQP
Description: Test Example 2: Evaluation of Human c-Mpl-Introduced Ba/F3 Cell Proliferative Activity
The human c-Mpl-introduced Ba/F3 cell proliferation action was measured by the following method.
As a positive control, 1-(5-{[4-(4-chlorothiophen-2-yl)-5-{[(2R)-2-methylpyrrolidin-1-yl]methyl}-1,3-thiazol-2-yl]carbamoyl}-3-fluoropyridin-2-yl)piperidine-4-carboxylic acid hydrochloride disclosed as Example 315 in Patent Document 1, represented by the formula (A1) above, was used. Further, it is known that the compound has a good human c-Mpl-introduced Ba/F3 cell proliferative activity as disclosed in Table 1 in Patent Document 1.
a) Construction of Vector Expressing Human c-Mpl Receptor
A human c-Mpl receptor gene (GenBank Accession No.: M90102.1) was transfected into an expression vector pEF-BOS (Nucleic Acids Research, 18: pp 5322 (1990)).
b) Construction of Cell Stably Expressing Human c-Mpl Receptor
A vector expressing a human c-Mpl receptor was introduced into a Ba/F3 cell (RIKEN BRC: RCB0805). For the introduction, an electroporation method was used. pEF-BOS-c-mpl (10 μg), pSV2bsr (1 μg, Kaken Pharmaceutical Co., Ltd.) and 1×10^7 of Ba/F3 cells were put into cuvettes with a gap width of 0.4 cm and electroporated under a condition of 1.5 kV (25 μF) in a Gene Pulser (registered trademark) (BioRad). The cells were incubated in an RPMI-1640 medium supplemented with a 0.5% WEHI conditioned medium (BD Biosciences) and 10% fetal bovine serum for 3 days, and thereafter, and the cells were incubated for 30 days in an RPMI-1640 medium, to which 10 μg/mL blasticidin had been further added, thereby acquiring a drug-resistant clone.
c) Measurement of Cell Proliferative Activity
The cells obtained in b) above were dispensed into an RPMI-1640 medium supplemented with a 0.5% WEHI conditioned medium and 10% fetal bovine serum, and used. The day before the experiment, the test substances (final concentration of 100 nM to 10 μM) which had been dissolved in a medium for assay (an RPMI-1640 medium supplemented with 10% fetal bovine serum) were added to a 384-well plate (Model No. 781185, Greiner bio-one). The cells after the medium had been replaced with the medium for assay were dispensed to a 384-well plate to which the test substance had been added, to 1×10^4 cells/well, and incubated overnight at 37° C. and 5% CO2. On the experiment day, a solution of a Cell counting kit (Dojindo Laboratories) was added to each well of the 384-well plate, and the cells were incubated for about 5 hours at 37° C. and 5% CO2. Thereafter, the absorbance (an absorbance wavelength of 450 nm) of each well was measured using Safire^2 (registered trademark) (TECAN), and used as an index for the number of cells. Further, as a negative control, a well to which the test substances had not been added was prepared.
By taking the absorbance of the well to which the test substance had been not added as 0% and taking the absorbance in a case where the positive control had been added to a final concentration of 1 μM as 100%, a cell proliferation rate (%) was calculated from the absorbance of the well to which the test substance had been added.

rat isolated bladder = experiment: Test Example 3: effect on electrical field stimulation-induced contraction in rat isolated bladder; conditions: 10 μM test substance; AUC of contraction, value before treatment = 100%; SD female rat bladder
Description: Test Example 3: Effect on Electrical Field Stimulation-Induced Contraction in Rat Isolated Bladder
As an effect on the nerve stimulation-dependent bladder contraction in in vitro, the effect of the Example compounds of the present invention in the electrical field stimulation-induced contraction of the rat isolated bladder was measured by the following method. That is, a bladder specimen having a width of about 2 mm and a length of about 10 mm in the longitudinal direction from the bladder isolated from a Sprague-Dawley (SD) female rat (Japan SLC, Inc.) was prepared. The prepared bladder specimen was suspended in an organ bath filled with 10 mL of a Krebs-Henseleite solution. The Krebs-Henseleite solution was aerated at 95% 02 and 5% CO2, and kept at 37° C. After carrying out stabilization at an initial tension of 1 g, the contraction was caused twice with 60 mM KCl. After stabilization of the specimen with a Krebs-Henseleite solution, the contraction was caused by carrying out electrical field stimulation at 20 V with an electrical stimulation device (Nihon Kohden) (a stimulation frequency of 8 Hz, a pulse width of 0.3 msec, and a stimulation time of 10 seconds). By repeating the transmural electrical stimulation at an interval of 2 minutes, a voltage was adjusted to obtain a contraction height of approximately 50% of the contractile response at 20 V. After the contraction by electrical field stimulation had been stabilized, 10 μL of the test substances dissolved in 100% dimethyl sulfoxide in advance (final concentrations of 3 μM, 10 μM, and 30 μM) was added thereto. The test substances were cumulatively administered at the following concentrations after the low-concentration contractile response had been stabilized. The response was taken into a personal computer through a PowerLab (registered trademark) (AD Instruments, Inc.), and analyzed by LabChart (registered trademark) (AD Instruments, Inc.). When the area under the response (area under curve, AUC) in each contraction response was calculated and the value before treatment with the test substance was taken as 100%, the enhancement rate (% of pre) of the isolated bladder contractions after treatment with the test substance was calculated.

[2] = molecular target: human muscarinic M3 receptor (Homo sapiens, UniProt P20309)
Sequence of human muscarinic M3 receptor (P20309 whole entry): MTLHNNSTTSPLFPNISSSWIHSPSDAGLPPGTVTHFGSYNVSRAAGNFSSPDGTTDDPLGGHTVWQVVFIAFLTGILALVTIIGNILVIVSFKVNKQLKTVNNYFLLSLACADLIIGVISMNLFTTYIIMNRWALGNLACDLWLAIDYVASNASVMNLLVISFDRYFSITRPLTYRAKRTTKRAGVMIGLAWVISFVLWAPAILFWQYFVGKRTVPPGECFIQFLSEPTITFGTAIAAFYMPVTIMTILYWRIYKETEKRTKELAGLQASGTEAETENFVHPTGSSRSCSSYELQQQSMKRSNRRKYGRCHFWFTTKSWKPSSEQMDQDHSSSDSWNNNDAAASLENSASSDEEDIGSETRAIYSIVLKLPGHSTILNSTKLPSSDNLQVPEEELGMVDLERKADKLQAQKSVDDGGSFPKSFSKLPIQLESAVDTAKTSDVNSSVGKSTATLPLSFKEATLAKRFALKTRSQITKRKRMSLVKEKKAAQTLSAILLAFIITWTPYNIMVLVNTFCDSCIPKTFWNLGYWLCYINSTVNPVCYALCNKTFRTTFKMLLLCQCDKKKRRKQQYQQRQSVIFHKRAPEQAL
Description: Test Example 1: Evaluation of Muscarinic M3 Receptor Positive Allosteric Modulator Activity
a) Construction of Vector Expressing Human Muscarinic M3 Receptor
A human muscarinic M3 receptor gene (GenBank Accession No.: NM_000740.2) was introduced into an expression vector pcDNA3.1™ (Life Technologies).
b) Construction of Cells Stably Expressing Human Muscarinic M3 Receptor
A vector expressing a human muscarinic M3 receptor was introduced into a CHO—K1 cell (ATCC No.: CCL-61). The introduction was carried out according to the attached instructions, using a transfection reagent, Lipofectoamine (registered trademark) 2000 Reagent (Life Technologies). The cells were incubated in an alpha Modified Eagle Minimum Essential Medium (α-MEM) including 2 mM glutamine, 10% fetal bovine serum, and 2.0 mg/mL Geneticin (registered trademark) (Life Technologies) for 4 weeks to acquire a drug-resistant clone.
c) Measurement of Intracellular Ca^2+ Concentration
The cells obtained in b) above were suspended in an α-MEM including 2 mM glutamine, 10% fetal bovine serum, and 0.2 mg/mL Geneticin (registered trademark) to the amount from 1.2 to 1.5×10^4 cells/well the day before the experiment, dispensed into a 384-well plate (Model No. 355962, BD Biosciences), and incubated overnight at 37° C. and 5% CO2. The medium was replaced with a loading buffer (an assay buffer (Hank's balanced salt solution (HBSS), 1 g/L BSA, 20 mM HEPES (pH 7.5), and 2.5 mM probenecid), including 3.1 μM Fluo 4-AM (Dojindo Laboratories) and incubated for about 2 hours at room temperature. Thereafter, the cells were washed with a plate washer ELx405™ (BIO-TEK Instrument, Inc.) set with the assay buffer, and set in an intracellular Ca^2+ concentration measuring system (FLIPR^tetra (registered trademark), Molecular Device Co.). The test substances (final concentration of 1 μM or 10 μM) and carbachol (Sigma, final concentration of 0.0024 nM to 10 μM) which had each been dissolved in the assay buffer in advance were set in a FLIPR^tetra (registered trademark). The test substances were added to the cells in the device and after about 5 minutes, carbachol was added to the cells. An increase rate of the intracellular Ca^2+ concentration by carbachol was measured (excitement wavelength of 470 nm to 495 nm and a fluorescence wavelength of 515 nm to 575 nm).
For the muscarinic M3 receptor-positive allosteric modulator activity, a shift toward a lower concentration side of a carbachol concentration-response curve by the test substance was used as an index. […] For example, when the EC50 value of carbachol in the absence of the test substance was 0.1 μM and the EC50 value of carbachol in the presence of the test substance was 0.01 μM, the value of the muscarinic M3 receptor-positive allosteric modulator activity becomes 10, showing that the test substance causes a 10-fold shift in the EC50 value toward to the low concentration side.

| Compound | human c-Mpl-introduced Ba/F3 cell proliferative activity EC30 [1] [µM] | muscarinic M3 receptor-positive allosteric modulator activity, 1 μM (-fold shift) [2] | muscarinic M3 receptor-positive allosteric modulator activity, 10 μM (-fold shift) [2] | Enhancement rate (% of pre) of isolated bladder contractions (rat isolated bladder) |
| --- | --- | --- | --- | --- |
| C[C@@H]1CCCN1Cc1sc(NC(=O)c2cnc(N3CCN(CCC(=O)O)CC3)cn2)nc1-c1ccc(F)c(C(F)(F)F)c1 [Example 60] | 9.7 | 33 -fold shift | 235 -fold shift | 144 % of pre |
| Cc1cc(OC(F)(F)F)cc(-c2nc(NC(=O)c3cnc(N4CCN(CCC(=O)O)CC4)cn3)sc2CN2CCC[C@H]2C)c1 [Example 46] | >10 | 29 -fold shift | 199 -fold shift | 132 % of pre |
| COc1c(F)cc(-c2nc(NC(=O)c3cnc(N4CCN(CCC(=O)O)CC4)cn3)sc2CN2CCC[C@H]2C)cc1C(F)(F)F [Example 72] | >10 | 31 -fold shift | 152 -fold shift | 157 % of pre |
| C[C@@H]1CCCN1Cc1sc(NC(=O)c2cnc(N3CCN(CCC(=O)O)[C@@H](C)C3)cn2)nc1-c1cc(C(F)(F)F)cs1 [Example 95] | 3 | 91 -fold shift | 233 -fold shift | 150 % of pre |
| CC[C@@H]1CCCN1Cc1sc(NC(=O)c2cnc(N3CCN(CCC(=O)O)CC3)cn2)nc1-c1ccc(OC)c(C(F)(F)F)c1 [Example 42] | >10 | 39 -fold shift | 141 -fold shift | 158 % of pre |
| CC[C@@H]1CCCN1Cc1sc(NC(=O)c2cnc(N3CCN(CCC(=O)O)C[C@H]3C)cn2)nc1-c1ccc(OC(C)C)c(C(F)(F)F)c1 [Example 135] | >10 | 25 -fold shift | 204 -fold shift | 139 % of pre |
| C[C@@H]1CCCN1Cc1sc(NC(=O)c2cnc(N3CCN(CCC(=O)O)CC3)cn2)nc1-c1cc(C2CC2)cc(C(F)(F)F)c1 [Example 67] | >10 | 40 -fold shift | 114 -fold shift | 116 % of pre |
| C[C@@H]1CCCN1Cc1sc(NC(=O)c2cnc(N3CCN(CCC(=O)[O-])CC3)cn2)nc1-c1cc(C#N)cc(C(F)(F)F)c1.[Na+] [Example 34] | >10 | – | – | 137 % of pre |
| CCC[C@@H]1CCCN1Cc1sc(NC(=O)c2cnc(N3CCN(CCC(=O)[O-])CC3)cn2)nc1-c1cccc(C(F)(F)F)c1.[Na+] [Example 124] | >10 | – | – | 132 % of pre |

The next lines start with results.

| human c-Mpl-introduced Ba/F3 cell proliferative activity EC30 [1] [µM] | muscarinic M3 receptor-positive allosteric modulator activity, 1 μM (-fold shift) [2] | muscarinic M3 receptor-positive allosteric modulator activity, 10 μM (-fold shift) [2] | Compound | Enhancement rate (% of pre) of isolated bladder contractions (rat isolated bladder) |
| --- | --- | --- | --- | --- |
| 5.3 | 36 -fold shift | 108 -fold shift | CC[C@@H]1CCCN1Cc1sc(NC(=O)c2cnc(N3CCN(CCC(=O)O)C[C@@H]3C)cn2)nc1-c1cc(Cl)cs1 [Example 28] | 123 % of pre |
| 4.7 | 52 -fold shift | 160 -fold shift | C[C@@H]1CCCN1Cc1sc(NC(=O)c2cnc(N3CCN(CCC(=O)O)[C@@H](C)C3)cn2)nc1-c1cc(Cl)cs1 [Example 142] | 196 % of pre |
| >10 | 76 -fold shift | 224 -fold shift | COc1c(Cl)cc(-c2nc(NC(=O)c3cnc(N4CCN(CCC(=O)O)CC4)cn3)sc2CN2CCC[C@H]2C)cc1Cl [Example 43] | 179 % of pre |
| 2.6 | 102 -fold shift | 287 -fold shift | C[C@@H]1CCCN1Cc1sc(NC(=O)c2cnc(N3CCN(CC(=O)O)CC3)cn2)nc1-c1cc(Cl)cs1 [Example 51] | 151 % of pre |
| >10 | 43 -fold shift | 326 -fold shift | C[C@@H]1CCCN1Cc1sc(NC(=O)c2cnc(N3CCN(CC(=O)O)CC3)cn2)nc1-c1cc(Cl)cc(C(F)(F)F)c1 [Example 13] | 126 % of pre |
| 1.3 | 35 -fold shift | 229 -fold shift | C[C@@H]1CCCN1Cc1sc(NC(=O)c2cnc(N3CCN(CC(=O)O)CC3)cn2)nc1-c1ccc(F)c(C(F)(F)F)c1 [Example 61] | 176 % of pre |
